Laboratory results taken from patent US20230363389A1, “MAMMAL REPELLENT” (SCENT SCIENCE INTERNATIONAL INC., priority 2020, published 2023).

Assays:
birds = conditions: reported, Non-Patent Literature 5; cited from earlier work
mice = conditions: reported, Non-Patent Literature 5; cited from earlier work
C57/BL6 male mice = experiment: Freezing test: innate fear (freezing) behavior of mice exposed to odor gas; format: in vivo, mouse; conditions: for freezing behavior-inducing activity (Freezing time): 10 ppm gas, 20 min observation, n = 6
Text: A 10 ppm gas was generated for 9 kinds of available odor molecules from those reported to have a repellent effect on birds by using a gas permeator (manufactured by GASTEC, PD-1B-2). Holes (4.5 cm and 12 cm high) were respectively drilled on opposite sides of a sealed test cage (17×17×18.5 cm), a tube for discharging the gas generated by the permeator was connected to the lower hole, the gas was introduced, and the higher hole allowed the air in the test cage to be released. After the air in the test cage was completely replaced by the odor gas, C57/BL6 male mice aged about 2 months to 6 months were put into the test cage (one mouse per cage), and the freezing behavior was analyzed by a freezing behavior automatic analyzer (manufactured by Actimetrics, Freeze Frame2) for 20 min. The time during which the mouse was motionless for 2 seconds or longer was measured as a freezing behavior, and the duration of freezing behavior within 20 minutes of observation time (Freezing time) was shown in %. Each experiment was performed with n = 6.
A constant concentration of the gas of the following various compounds was generated by a gas permeator (manufactured by GASTEC, PD-1B-2). When the concentration is not particularly indicated, an odor gas was generated at a concentration of 10 ppm. Holes (4.5 cm and 12 cm high) were respectively drilled on opposite sides of a sealed test cage (17×17×18.5 cm), a tube for discharging the gas generated by the permeator was connected to the lower hole, the gas was introduced, and the higher hole allowed the air in the test cage to be released. After the air in the test cage was completely replaced by the odor gas, C57/BL6 male mice aged about 2 months to 6 months were put into the test cage (one mouse per cage), and the freezing behavior was analyzed by a freezing behavior automatic analyzer (manufactured by Actimetrics, Freeze Frame2) for 20 min. The time during which the mouse was motionless for 2 seconds or longer was measured as a freezing behavior, and the duration of freezing behavior within 20 minutes of observation time (Freezing time) was shown in %. Each experiment was performed with n = 6. […]
A 10 ppm gas of thiophene and 2-acetylthiophene was generated using a gas permeator (manufactured by GASTEC, PD-1B-2). […] After the air in the test cage was completely replaced by the odor gas, C57/BL6 male mice aged about 2 months to 6 months were put into the test cage (one mouse per cage), and the freezing behavior was analyzed by a freezing behavior automatic analyzer (manufactured by Actimetrics, Freeze Frame2) for 20 min. The time during which the mouse was motionless for 2 seconds or longer was measured as a freezing behavior, and the duration of freezing behavior within 20 minutes of observation time (Freezing time) was shown in %. […]

| Structure (SMILES) | repellent activity in birds (birds) | activity to induce freezing behavior in mice (mice) | freezing behavior-inducing activity (Freezing time) (C57/BL6 male mice; Example 1, FIG. 1) | freezing behavior-inducing activity (Freezing time) (C57/BL6 male mice; Example 3, FIG. 3) | significant difference from no odor, student's t-test (C57/BL6 male mice; Example 3, freezing time versus no odor) |
| --- | --- | --- | --- | --- | --- |
| Cc1csc(C)n1 [2,4-dimethyl-thiazole] | does not show repellent activity | has an activity to induce freezing behavior |  |  |  |
| CC(=O)c1cccs1 [2-acetylthiophene] |  |  | induced a freezing behavior | very strong freezing behavior |  |
| c1ccsc1 [thiophene] |  |  |  | very low | no significant difference |
